According to patent US20100272710A1, “COMPOSITIONS AND METHODS FOR TREATING AND PREVENTING AGING-ASSOCIATED DISEASES” (priority 2009, published 2010):
Read-outs that look alike come from different tables or passages of the source.

How the values were obtained:
Sirt1 [1] = type: cell-based; conditions: increasing concentrations, Western blot
Description: (§1) SaOS2 cells were incubated in the presence of reduced glucose levels in the culture medium for 48 hours. Expression of TXNIP and Sirt1 were determined by Western blot using specific antibodies. Antibody to _-Actin was used as a loading control.
(§2) The RGC (4C) and SaOS2 (4D) cells were subjected to treatment with increasing concentrations of resveratrol (Resv.) for 48 hours followed by Western blot as described in Panel A.
(§3) SaOS2 cells were treated with increasing amounts of DHEA and probed for expression of Sirt1 and TXNIP; beta-actin was used as a loading control.
(§4) The effects of limited glucose availability (used here to mimic the effect of calorie restriction), resveratrol (an activator of Sirt1) and DHEA (used for hormone replacement therapy), on the expression of TXNIP and Sirt1 were determined by Western blot using specific antibodies to the corresponding proteins (FIG. 4).

TXNIP [2] = assay: Western blot of TXNIP expression in human embryonic stem cells BG01V; type: cell-based
Description: (§5) Effects of limited glucose availability, resveratrol and DHEA on expression of TXNIP and Sirt1 in normal cells. Aortic smooth muscle cells (4A) and human embryonic stem cells (4B) were treated as described in FIG. 1 for cancer cells. Expression Sirt1 and TXNIP were analyzed by Western blot using specific antibodies. Antibody to GAPDH was used as loading control. (Glc: glucose; Resv: Resveratrol).
(§6) To test whether cellular proliferative capacity may account for this difference, we measured expression of Sirt1 and TXNIP in embryonic stem cells known for rapid self renewal ability. The human embryonic stem cells, BG01V, were subjected to glucose restriction or treatment with either resveratrol or DHEA under similar conditions to those described in FIG. 4. […] In contrast, the consistent inhibition of TXNIP by limited glucose availability in cancer cells as well as in differentiated smooth muscle cells and non-differentiated stem cells, is indicative of a potential role of this gene in mediating the anti-aging action of calorie restriction.

TXNIP [3] = assay: Western blot of TXNIP expression in cancer cells (SaOS2, RGC); type: cell-based; conditions: for expression of TXNIP: increasing concentrations, Western blot
Description: as §1, §2, §3
The cells were treated with different concentrations of glucose with or without DHEA. After 48 hours in cultures, proteins were separated by electrophoresis and probed for TXNIP. Staining with beta-actin antibody was used as a loading control.
as §4

TXNIP [4] = assay: Western blot of TXNIP expression in aortic smooth muscle cells; type: cell-based
Description: as §5
(§7) In order to obtain information on the physiological relevance of targeting Sirt1 and TXNIP in normal tissues, we investigated the effect of limited glucose availability, resveratrol and DHEA in differentiated aortic smooth muscle cells, and non-differentiated, human embryonic stem cells.

Sirt1 [5] = type: cell-based; conditions: aortic smooth muscle cells, Western blot
Description: as §5, §7

[6] = target: glucose 6 phosphate dehydrogenase, G6PD (Homo sapiens, UniProt P11413); assay: G6PD activity in protein extract (NADPH production); conditions: 30 min at 37° C.; for activity of G6PD: protein extract 100 ug
Description: Protein extract (100 _g) was incubated with DHEA or resveratrol at the indicated concentrations, after 30 min at 37° C., the activity of G6PD was measured as described in the methods section.

Sirt1 [7] = assay: Sirt1 expression in organs of treated mice (Western blot); type: in vivo; conditions: CD1 mice, 10 mg/Kg i.p., 2 days
Description: (§8) Tissue distribution of Sirt1 and TXNIP in mice and their regulation by resveratrol and DHEA. Mice CD1 strain were injected (i.p.) with 10 mg/Kg of either resveratrol or DHEA and after 2 days, the animals were sacrificed and organs harvested and processed by Western blot for the expression of Sirt1 and TXNIP. Staining with GAPDH was used as a loading control.
(§9) In order to determine whether the observed effects in vitro could be also valid in vivo, we have subjected the nude mice (CD1 strain, Charles River) to treatment with either resveratrol or DHEA (10 mg/Kg each) for 2 days. The animals were then sacrificed and major organs harvested to analyze expression of Sirt1 and TXNIP by Western blot.

AMPK = assay: Phosphorylation of AMPK in cells (Western blot, anti-phospho-AMPK Thr172); type: cell-based; conditions: for AMPK phosphorylation: osteosarcoma cells SaOS2, 48 hours
Description: SaOS2 cells were treated with increasing concentrations of resveratrol for 48 hours, after what, proteins were extracted and probed either with anti-phospho-AMPK (Thr172), or with antibody to AMPK.
RGC cells were incubated with 20 or 100 μM resveratrol or DHEA 100 μM for 48 hours, and then probed for phosphor-AMPK and AMPK as described above.
However, the relevance of this action to the regulation of TXNIP by resveratrol and the possible implication of DHEA in regulating this pathway are not yet investigated. […] Further confirmation of this link will help establish TXNIP inhibition as an important determinant for evaluating the efficacy of putative anti-aging interventions.

Sirt1 [8] = assay: Western blot of Sirt1 expression in human embryonic stem cells BG01V; type: cell-based
Description: as §5, §6

TXNIP [9] = assay: TXNIP expression in organs of treated mice (Western blot); type: in vivo; conditions: CD1 mice, 10 mg/Kg i.p., 2 days
Description: as §8, §9

[10] = retinal glial cells (RGC), 48 hours

Chain of glucose 6 phosphate dehydrogenase, G6PD (P11413 whole entry): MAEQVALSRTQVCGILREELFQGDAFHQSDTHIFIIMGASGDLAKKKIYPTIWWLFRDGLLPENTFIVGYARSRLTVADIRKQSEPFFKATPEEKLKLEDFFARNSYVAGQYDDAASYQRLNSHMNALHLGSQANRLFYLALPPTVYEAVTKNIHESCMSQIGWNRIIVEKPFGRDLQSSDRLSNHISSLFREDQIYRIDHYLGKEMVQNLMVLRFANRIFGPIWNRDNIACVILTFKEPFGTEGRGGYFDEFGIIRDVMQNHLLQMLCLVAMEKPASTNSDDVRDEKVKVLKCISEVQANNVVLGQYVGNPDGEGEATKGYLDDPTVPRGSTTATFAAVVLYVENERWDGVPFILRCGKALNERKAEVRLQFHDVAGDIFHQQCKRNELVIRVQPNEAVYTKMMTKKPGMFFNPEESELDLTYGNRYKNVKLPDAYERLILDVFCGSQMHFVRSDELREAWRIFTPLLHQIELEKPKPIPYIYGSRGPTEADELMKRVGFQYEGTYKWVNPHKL

Structure (SMILES)	expression of Sirt1 (Sirt1 [1]; SaOS2 cells)	expression of TXNIP (TXNIP [2])	expression of TXNIP (TXNIP [3]; SaOS2 cells)	effects of glucose on TXNIP expression after pre-treatment (TXNIP [3]; cells with different concentrations of glucose with or without DHEA, 48 hours)	expression of TXNIP (TXNIP [4])	expression of Sirt1 (Sirt1 [5])	activity of G6PD [6]	inhibitory effect on G6PD observed ([6]; protein extract, assay based on production of NADPH) [%]	expression of Sirt1 in most tissues (Sirt1 [7])	AMPK phosphorylation (AMPK)	expression of Sirt1 (Sirt1 [8])	expression of TXNIP in the lung (TXNIP [9])	expression of TXNIP in the muscle (TXNIP [9])	expression of Sirt1 (Sirt1 [1]; RGC cells, 48 hours)	expression of TXNIP (TXNIP [3]; RGC cells, 48 hours)	AMPK phosphorylation (p-AMPK) (AMPK; [10])	expression of AMPK (AMPK; [10])
C[C@]12CC[C@H](O)CC1=CC[C@@H]1[C@@H]2CC[C@]2(C)C(=O)CC[C@@H]12 [DHEA, dehydroepiandrosterone]	decreased expression	none of these genes was affected	decreased expression	almost completely blocked	without effect	without effect	strongly inhibited and in a dose dependent manner	50	not significantly affect	without effect	none of these genes was affected	inhibited the expression	inhibitory effect				
Oc1ccc(C=Cc2cc(O)cc(O)c2)cc1 [resveratrol]	suppressed the expression	none of these genes was affected	stimulatory action at low concentrations and inhibition at higher ones		inhibited the expression of TXNIP in a dose dependent manner	no significant changes in Sirt1 expression	no effect		not significantly affect	induced AMPK phosphorylation	none of these genes was affected	inhibited the expression	only DHEA had an inhibitory effect in the muscle	suppressed the expression	stimulatory action at low concentrations and inhibition at higher ones	readily activates	without affecting expression
